Usually EC50 stands for the concentration giving half of the maximal effect. As usually defined, the IC50 is the concentration that inhibits the measured activity by half. Usually Papp stands for a coefficient for how fast a substance crosses the barrier. Low readings indicate slow passage, high ones fast passage.

This note sets out measurements from US10294229B2, “Heteroaryl substituted aminopyridine compounds” (BRISTOL-MYERS SQUIBB COMPANY, priority 2015, dated 2019).

The subject of data set [1] is Human whole blood stimulated with a TLR2 agonist (lipoteichoic acid), IL-6 levels. Put plainly: IRAK4 Whole Blood Assay. The format is cell-based. The note with it: Homo sapiens, lipoteichoic acid 10 μg/mL. In outline:
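IL-6 was quantified by cytometric bead assay in supernatants of human blood (ACD-A) stimulated for 5 h with lipoteichoic acid at 10 μg/mL final. Compound exposure preceded stimulation for 60 min at 37 °C, 5% CO2.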

The target in a further data set is IRAK4 (Homo sapiens (Human), UniProt Q9NWZ3). Put plainly: IRAK4 Inhibition Assay. Type of data set: biochemical. The note with it: ATP 500 μM; IRAK4 0.6 nM. In outline:
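Mobility-shift kinase assay: 0.6 nM IRAK4, 500 μM ATP, 1.5 μM fluorescent peptide, 60 min, room temperature. Percent inhibition was normalised between enzyme-free and DMSO-only wells.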

Data set [2] in a line: Caco-2 Permeability Assay. The format is in vitro ADME. As to conditions: human, Caco-2, test compound 3 μM. The procedure, abridged: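 Bidirectional permeability measured over 2 h at 37° C, compound dosed at 3 μM in the donor compartment (apical for absorptive, basolateral for secretive) with plain buffer as receiver.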
(Caco-2 cells form a polarised layer with tight junctions and transporters.)

Structures can show the parent of a compound that is named as a salt. A value given as a limit tells only on which side of the number the result lay.

Chain of IRAK4 (Q9NWZ3 whole entry, species assumed): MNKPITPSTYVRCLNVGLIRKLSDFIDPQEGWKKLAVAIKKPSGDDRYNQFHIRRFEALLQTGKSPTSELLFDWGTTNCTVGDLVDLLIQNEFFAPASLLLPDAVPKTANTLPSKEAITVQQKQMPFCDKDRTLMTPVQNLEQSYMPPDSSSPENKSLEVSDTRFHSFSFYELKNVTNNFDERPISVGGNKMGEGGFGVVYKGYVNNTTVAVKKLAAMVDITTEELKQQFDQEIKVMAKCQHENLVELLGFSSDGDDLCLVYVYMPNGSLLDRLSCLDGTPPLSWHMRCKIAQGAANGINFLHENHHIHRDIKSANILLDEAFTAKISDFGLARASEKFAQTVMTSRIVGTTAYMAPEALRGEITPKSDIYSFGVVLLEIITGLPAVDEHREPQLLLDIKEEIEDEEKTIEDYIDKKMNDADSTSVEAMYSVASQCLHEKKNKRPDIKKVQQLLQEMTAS

In data set [1], `CC(C)Nc1cc(-n2cnc3cc(C#N)cnc32)ncc1-c1cn(C2CN(C)C2)nn1` [Example 152, 3-(4-(isopropylamino)-5-(1-(1-methylazetidin-3-yl)-1H-1,2,3-triazol-4-yl)pyridin-2-yl)-3H-imidazo[4,5-b]pyridine-6-carbonitrile] showed a concentration giving a half-maximal response (EC50) of 750 nM. On IRAK4, the half-maximal inhibitory concentration (IC50) was 4 nM. Besides, the apparent permeability coefficient (Papp) at 2 h, 3 µM in data set [2] came to 15.8 ×10⁻⁶ cm/s.

`CC(=O)N1CC(n2cc(-c3cnc(-n4ncc5cc(C#N)cnc54)cc3NC(C)C)nn2)C1` [Example 154, 1-(5-(1-(1-acetylazetidin-3-yl)-1H-1,2,3-triazol-4-yl)-4-(isopropylamino)pyridin-2-yl)-1H-pyrazolo[3,4-b]pyridine-5-carbonitrile]: in data set [1], a half-maximal response (EC50) required 150 nM. Moreover, at IRAK4, the half-inhibitory concentration (IC50) turned out to be 4 nM. In addition, the apparent permeability (Papp) at 2 h, 3 µM in data set [2] was under 1.5 ×10⁻⁶ cm/s.

As for `CC(=O)N1CCC(n2cc(-c3cnc(-n4ncc5cc(C#N)cnc54)cc3NC(C)C)nn2)C1` (stereo not drawn) [Example 157, 1-(5-(1-(1-acetylpyrrolidin-3-yl)-1H-1,2,3-triazol-4-yl)-4-(isopropylamino)pyridin-2-yl)-1H-pyrazolo[3,4-b]pyridine-5-carbonitrile], in data set [1], it took 280 nM to reach a half-maximal effect (EC50). Also, at IRAK4, the half-inhibitory concentration (IC50) was 6 nM. Also, the Papp at 2 h, 3 µM in data set [2] is under 1.5 ×10⁻⁶ cm/s.

In data set [1], `CC(=O)N1CCC(n2cc(-c3cnc(-n4ncc5cc(C#N)cnc54)cc3NC(C)C)nn2)CC1` [Example 159, 1-(5-(1-(1-acetylpiperidin-4-yl)-1H-1,2,3-triazol-4-yl)-4-(isopropylamino)pyridin-2-yl)-1H-pyrazolo[3,4-b]pyridine-5-carbonitrile] gave a concentration giving a half-maximal response (EC50) of 130 nM. The concentration for half-maximal inhibition (IC50) at IRAK4 came to 4 nM. Moreover, the apparent permeability coefficient (Papp) at 2 h, 3 µM in data set [2] is under 1.5 ×10⁻⁶ cm/s.

With `CC(=O)N1CCCC(n2cc(-c3cnc(-n4ncc5cc(C#N)cnc54)cc3NC(C)C)nn2)C1` (stereo not drawn) [Example 160, 1-(5-(1-(1-acetylpiperidin-3-yl)-1H-1,2,3-triazol-4-yl)-4-(isopropylamino)pyridin-2-yl)-1H-pyrazolo[3,4-b]pyridine-5-carbonitrile], the half-maximal effective concentration (EC50) in data set [1] came out at 290 nM. Besides, the half-maximal inhibitory concentration (IC50) on IRAK4 is 1 nM. Further, the Papp at 2 h, 3 µM in data set [2] turned out to be 1.8 ×10⁻⁶ cm/s.

`CC(=O)N1CC(n2cc(-c3cnc(-n4ccc5cc(C#N)cnc54)cc3NC(C)C)nn2)C1` [Example 162, 1-(5-(1-(1-acetylazetidin-3-yl)-1H-1,2,3-triazol-4-yl)-4-(isopropylamino)pyridin-2-yl)-1H-pyrrolo[2,3-b]pyridine-5-carbonitrile, TFA]: the EC50 in data set [1] was 440 nM. The concentration for half-maximal inhibition (IC50) at IRAK4 is 4 nM. The molecule further showed an apparent permeability (Papp) at 2 h, 3 µM in data set [2] of 17.1 ×10⁻⁶ cm/s.

The molecule `CC(C)Nc1cc(-n2ccc3cc(C#N)cnc32)ncc1-c1cn(CCN2CCOCC2)nn1` [Example 163, 1-(4-(isopropylamino)-5-(1-(2-morpholinoethyl)-1H-1,2,3-triazol-4-yl)pyridin-2-yl)-1H-pyrrolo[2,3-b]pyridine-5-carbonitrile, 2TFA] gave an EC50 in data set [1] of 600 nM. In addition, the IC50 on IRAK4 worked out at 2 nM. In addition, the apparent permeability coefficient (Papp) at 2 h, 3 µM in data set [2] is 19.5 ×10⁻⁶ cm/s.

In turn, `CC(=O)Cn1cc(-c2cnc(-n3ncc4cc(C#N)cnc43)cc2NC(C)C)nn1` [Example 170, 1-(4-(isopropylamino)-5-(1-(2-oxopropyl)-1H-1,2,3-triazol-4-yl)pyridin-2-yl)-1H-pyrazolo[3,4-b]pyridine-5-carbonitrile] yielded an EC50 in data set [1] of 430 nM. At IRAK4, the 50% inhibitory concentration (IC50) was found to be 2 nM. Moreover, the apparent permeability (Papp) at 2 h, 3 µM in data set [2] came to 4.5 ×10⁻⁶ cm/s.

`CC(=O)N1CC[C@H](n2cc(-c3cnc(-n4ncc5cc(C#N)cnc54)cc3NC(C)C)nn2)[C@H](O)C1` [Example 178, 1-(5-(1-((3R,4S)-1-acetyl-3-hydroxypiperidin-4-yl)-1H-1,2,3-triazol-4-yl)-4-(isopropylamino)pyridin-2-yl)-1H-pyrazolo[3,4-b]pyridine-5-carbonitrile] gave an EC50 in data set [1] of 530 nM. The IC50 at IRAK4 amounted to 6 nM. The same molecule returned an apparent permeability (Papp) at 2 h, 3 µM in data set [2] of under 1.5 ×10⁻⁶ cm/s.

Molecule `CC(C)Nc1cc(-n2ncc3cc(C#N)cnc32)ncc1-c1cn([C@H]2CCN(C(=O)C(C)(C)C)C[C@H]2O)nn1` [Example 179, 1-(5-(1-((3R,4S)-3-hydroxy-1-pivaloylpiperidin-4-yl)-1H-1,2,3-triazol-4-yl)-4-(isopropylamino)pyridin-2-yl)-1H-pyrazolo[3,4-b]pyridine-5-carbonitrile] came in with an EC50 in data set [1] of 680 nM. Besides, the IC50 on IRAK4 is 7 nM. The same molecule came in with an apparent permeability (Papp) at 2 h, 3 µM in data set [2] of 1.8 ×10⁻⁶ cm/s.

On to `CCOC(=O)N1CC[C@H](n2cc(-c3cnc(-n4ncc5cc(C#N)cnc54)cc3NC(C)C)nn2)[C@H](O)C1` [Example 180, (3R,4S)-ethyl 4-(4-(6-(5-cyano-1H-pyrazolo[3,4-b]pyridin-1-yl)-4-(isopropylamino)pyridin-3-yl)-1H-1,2,3-triazol-1-yl)-3-hydroxypiperidine-1-carboxylate], for which the EC50 in data set [1] turned out to be 2140 nM. The IC50 at IRAK4 turned out to be 11 nM. In addition, the apparent permeability coefficient (Papp) at 2 h, 3 µM in data set [2] worked out at 3.2 ×10⁻⁶ cm/s.

On to `CC(C)Nc1cc(-n2ncc3cc(C#N)cnc32)ncc1-c1cn([C@H]2CCN(S(C)(=O)=O)C[C@H]2O)nn1` [Example 181, 1-(5-(1-((3R,4S)-3-hydroxy-1-(methylsulfonyl)piperidin-4-yl)-1H-1,2,3-triazol-4-yl)-4-(isopropylamino)pyridin-2-yl)-1H-pyrazolo[3,4-b]pyridine-5-carbonitrile], for which a half-maximal effect in data set [1] (EC50) was put at 400 nM. The IC50 at IRAK4 amounted to 7 nM. The molecule further returned a Papp at 2 h, 3 µM in data set [2] of under 1.5 ×10⁻⁶ cm/s.

On to `CC(C)Nc1cc(-n2ncc3cc(C#N)cnc32)ncc1-c1cn([C@@H]2CCN(S(C)(=O)=O)C[C@@H]2O)nn1` [Example 188, 1-(5-(1-((3S,4R)-3-hydroxy-1-(methylsulfonyl)piperidin-4-yl)-1H-1,2,3-triazol-4-yl)-4-(isopropylamino)pyridin-2-yl)-1H-pyrazolo[3,4-b]pyridine-5-carbonitrile], for which the concentration for a half-maximal effect (EC50) in data set [1] amounted to 110 nM. On IRAK4, the concentration for half-maximal inhibition (IC50) is 18 nM. In data set [2], this molecule yielded a Papp at 2 h, 3 µM of under 1.5 ×10⁻⁶ cm/s.

In turn, `CC(=O)N1CC[C@@H](n2cc(-c3cnc(-n4ncc5cc(C#N)cnc54)cc3NC(C)C)nn2)[C@@H](O)C1` [Example 191, 1-(5-(1-((3S,4R)-1-acetyl-3-hydroxypiperidin-4-yl)-1H-1,2,3-triazol-4-yl)-4-(isopropylamino)pyridin-2-yl)-1H-pyrazolo[3,4-b]pyridine-5-carbonitrile] had an EC50 in data set [1] of 390 nM. At IRAK4, the IC50 was determined as 16 nM. Also, the Papp at 2 h, 3 µM in data set [2] was under 1.5 ×10⁻⁶ cm/s.

`CC(C)Nc1cc(-n2ncc3cc(C#N)cnc32)ncc1-c1cn(CC(=O)N2CCNCC2)nn1` [Example 192, 1-(4-(isopropylamino)-5-(1-(2-oxo-2-(piperazin-1-yl)ethyl)-1H-1,2,3-triazol-4-yl)pyridin-2-yl)-1H-pyrazolo[3,4-b]pyridine-5-carbonitrile] registered an EC50 in data set [1] of 150 nM. For the same molecule, the IC50 on IRAK4 was determined as 3 nM. Further, the apparent permeability (Papp) at 2 h, 3 µM in data set [2] was under 1.5 ×10⁻⁶ cm/s.

On to `CC(C)Nc1cc(-n2ncc3cc(C#N)cnc32)ncc1-c1cn(C2CCNCC2)nn1` [Example 195, 1-(4-(isopropylamino)-5-(1-(piperidin-4-yl)-1H-1,2,3-triazol-4-yl)pyridin-2-yl)-1H-pyrazolo [3,4-b]pyridine-5-carbonitrile], for which the concentration giving a half-maximal response (EC50) in data set [1] turned out to be 450 nM. In addition, the half-inhibitory concentration (IC50) on IRAK4 was found to be 2 nM. In data set [2], this molecule yielded a Papp at 2 h, 3 µM of under 1.5 ×10⁻⁶ cm/s.

In turn, `CC(C)Nc1cc(-n2ncc3cc(C#N)cnc32)ncc1-c1cn(C2CCN(S(C)(=O)=O)CC2)nn1` [Example 196, 1-(4-(isopropylamino)-5-(1-(1-(methylsulfonyl)piperidin-4-yl)-1H-1,2,3-triazol-4-yl)pyridin-2-yl)-1H-pyrazolo[3,4-b]pyridine-5-carbonitrile] had an EC50 in data set [1] of 1210 nM. Also, on IRAK4, the 50% inhibitory concentration (IC50) stood at 4 nM. This molecule displayed an apparent permeability (Papp) at 2 h, 3 µM in data set [2] of 4.7 ×10⁻⁶ cm/s.

Turning to `CC(C)Nc1cc(-n2ncc3cc(C#N)cnc32)ncc1-c1cn(C(C)C)nn1` [Example 213, 1-(5-(1-isopropyl-1H-1,2,3-triazol-4-yl)-4-(isopropylamino)pyridin-2-yl)-1H-pyrazolo[3,4-b]pyridine-5-carbonitrile], in data set [1], the EC50 is 1750 nM. In addition, at IRAK4, the 50% inhibitory concentration (IC50) came to 5 nM. In data set [2], this molecule gave a Papp at 2 h, 3 µM of 19.3 ×10⁻⁶ cm/s.

`CC(C)Nc1cc(-n2ncc3cc(C#N)cnc32)ncc1-c1cn(C2CCOC2)nn1` (stereo not drawn) [Example 214, 1-(4-(isopropylamino)-5-(1-(tetrahydrofuran-3-yl)-1H-1,2,3-triazol-4-yl)pyridin-2-yl)-1H-pyrazolo[3,4-b]pyridine-5-carbonitrile] came in with an EC50 in data set [1] of 920 nM. Also, the half-inhibitory concentration (IC50) on IRAK4 was 7 nM. For the same molecule, the Papp at 2 h, 3 µM in data set [2] was found to be 13.6 ×10⁻⁶ cm/s.

In data set [1], `CC(C)Nc1cc(-n2ncc3cc(C#N)cnc32)ncc1-c1cn([C@H]2CCCC[C@H]2O)nn1` [Example 216, 1-(5-(1-((1S,2R)-2-hydroxycyclohexyl)-1H-1,2,3-triazol-4-yl)-4-(isopropylamino)pyridin-2-yl)-1H-pyrazolo[3,4-b]pyridine-5-carbonitrile] returned a concentration giving a half-maximal response (EC50) of 1650 nM. Also, on IRAK4, the IC50 was 2 nM. Further, the Papp at 2 h, 3 µM in data set [2] worked out at 7.3 ×10⁻⁶ cm/s.

`CCCn1cc(-c2cnc(-n3ncc4cc(Cl)cnc43)cc2NC(C)C)nn1` [Example 218, 2-(5-chloro-1H-pyrazolo[3,4-b]pyridin-1-yl)-N-isopropyl-5-(1-propyl-1H-1,2,3-triazol-4-yl)pyridin-4-amine] returned a concentration giving a half-maximal response (EC50) in data set [1] of 2090 nM. Also, the IC50 at IRAK4 amounted to 9 nM. In data set [2], this molecule returned a Papp at 2 h, 3 µM of 12.5 ×10⁻⁶ cm/s.

Molecule `CCCn1cnc(-c2cnc(-n3ncc4cc(C#N)cnc43)cc2NC(C)C)c1` [Example 219] yielded a half-maximal effective concentration (EC50) in data set [1] of 1480 nM. Also, the half-inhibitory concentration (IC50) on IRAK4 was determined as 10 nM. In data set [2], this molecule gave an apparent permeability (Papp) at 2 h, 3 µM of 31.8 ×10⁻⁶ cm/s.
